The values that follow come from US20250270159A1, “1-(CYCLOBUTANEMETHYLIDENE)-2, 4, 5-TRIMETHOXYBENZENE COMPOUND AND PREPARATION METHOD AND USE THEREOF” (CHENGDU XINRUI TAIKANG TECHNOLOGY CO., LTD., priority 2023, published 2025).

The test system of assay [1] is rat model of lithium-pilocarpine-induced epilepsy. Description: Rat model of lithium-pilocarpine-induced epilepsy (SE), highest seizure grade score. The assay is classed as in vivo, Sprague Dawley (SD) rats. The following applies: 300 mg/kg oral gavage, 1 h after SE onset; acute phase; Racine 0-6. As to the method: (1) Experimental Animals: SPF Adult Male Sprague Dawley (SD) Rats, with a Weight of 200-250 g.
Methylscopolamine bromide, lithium chloride, and pilocarpine were weighed, and experimental drugs were dissolved to working concentrations (100 mg/mL of lithium chloride solution, 1 mg/mLof methylscopolamine bromide solution, and 20 mg/mL of pilocarpine solution) with 0.9% saline. Rats were injected intraperitoneally with lithium chloride (a dose of 127 mg/kg), and 18-20 h later, scopolamine methylbromide (a dose of 1 mg/kg) was injected intraperitoneally. […] Thereafter, an additional dose of 10 mg/kg pilocarpine was injected intraperitoneally every 30 min until the onset of a grade IV or higher status epilepticus (SE)-like seizure without significant intermittent intervals, with a maximum dose of 60 mg/kg.
Model inclusion criterion: experimental animals presenting continuous seizures of grade IV or higher for 1 h was judged as successful modeling.
The rats with successful modeling were randomly divided into three groups, namely a model group, a CTMB group, and a sodium valproate (VPA) group. […]
Referring to the grading scale of Racine scores, the seizure symptoms of each group of rats after the drug intervention were observed, and the seizure grades of each group of rats in the acute phase were recorded. […]

Assay [2] concerns Tyrosine hydroxylase (TH) protein expression. Description: TH protein expression by immunohistochemistry in substantia nigra of PD mice. The following applies: Group L, levodopa: benserazide hydrochloride=4:1, 12 mg/kg ip, after 4 weeks of administration. In kind it is in vivo, C57 mice. As to the method: (§1) The mice were randomly divided into a sham operation group (group S, given a blank emulsion with a volume equal to that of the administered group), a model group (group M, given a blank emulsion with a volume equal to that of the administered group), a CTMB group (20 mg/kg, group D), and a levodopa group (levodopa: benserazide hydrochloride=4:1, 12 mg/kg, group L), each group included 10-12 mice, and all of them were administered intraperitoneally.
(§2) After completing the evaluation of motor function after 4 weeks of drug administration, the mice were deeply anesthetized, perfused with 20 mL of saline and 20 mL of 4% paraformaldehyde via the heart, and the brains were rapidly severed and extracted from the head, which were then preserved and fixed in 4% paraformaldehyde for 72 h after removal, and then embedded with paraffin to prepare the slices with a thickness of 4 μm for subsequent pathological and histological studies.
Tyrosine hydroxylase (TH) protein expression was detected by immunohistochemistry. […]

Assay [3] deals with neurons in the substantia nigra region of the midbrain of PD mice. Kind of assay: Niehl's staining, number of neuronal Niehl's bodies in substantia nigra of PD mice. In kind it is in vivo, C57 mice. The following applies: Group L, levodopa: benserazide hydrochloride=4:1, 12 mg/kg ip, after 4 weeks of administration. As for the experimental part:
as §1, §2
Niehl's staining was used to identify Niehl's bodies in neuronal cells.

The subject of assay [4] is Parkinson's disease (PD) mice, 6-OHDA method. Kind of assay: 6-OHDA Parkinson's disease mice, rod-climbing experiment. The assay is classed as in vivo, C57 mice. The following applies: Group L, levodopa: benserazide hydrochloride=4:1, 12 mg/kg ip. As for the experimental part: as §1
(§3) Preoperatively, mice were fasted for 12 h, and mice were anesthetized with 4% isoflurane induction and maintained with 1.5% isoflurane. The mice were subsequently immobilized on a brain stereotaxic apparatus. The bregma and lambda points were exposed by gently wiping the cranial surface with a cotton swab after cutting the scalp. The stereotaxic apparatus was adjusted to align the heights of the bregma and lambda points, thereby leveling the skull. The bregma point was designated as the origin, the coordinates where the injection site was located were located, and the drill was used to drill a small hole in the skull above the injection site.
(§4) 6-OHDA (12.5 μg/μL) was injected into the striatum region (AP+0.5 mm; ML+2.00 mm; DV-3.00 mm and-2.00 mm) of the mice, and 1 μL 6-OHDA was injected into each of the two points at a rate of 0.5 μL/min. The needle was left in place for 3 min after the injection was completed, and then the injection needle was lifted, and the scalp of the mice was sutured and disinfected. The sham operation group was injected with an equal volume of saline containing 0.02% ascorbic acid, and other operations were performed as above. After the procedure, the mice were placed in the cage at an appropriate temperature. After awakening from anesthesia, the mice were kept normally.
The rod-climbing experiment: the rod-climbing experiment was mainly used to test the limb movement ability of mice and to assess the symptoms of motor delay. This experiment evaluated the ability of mice to grasp and maneuver on a pole to descend to their home cage. A cork ball was fixed to an iron pole with a diameter of 1 cm and a length of 65 cm. The head of the mice was put down on the top of the pole, and the mice usually naturally descended down along the pole to return to their cage. The time for the mice to descend to the bottom was recorded. Results were averaged over 3 consecutive measurements.
(§5) The motor function of the mice was comprehensively assessed using the rod-climbing experiment and the hanging experiment at 1, 2, 3, and 4 weeks after drug administration.

The test system is the same in assay [5]. Kind of assay: 6-OHDA Parkinson's disease mice, hanging experiment. In kind it is in vivo, C57 mice. The following applies: Group L, levodopa: benserazide hydrochloride=4:1, 12 mg/kg ip, cut-off 60 s. As for the experimental part:
as §1, §3, §4
The hanging experiment: normal mice have climbing activity, which requires proper grip strength and motor coordination, so the hanging experiment may be used to examine motor dysfunction in mice. A metal rod with a diameter of 1.5 mm was placed horizontally on top of the box, and a distance from the metal rod to the bottom of the box was 30 cm. […] Measurement was performed twice, with an interval of 1 min or more between each test, and the results were averaged over the two times.
as §5

For assay [6], the system named is neurons of substantia nigra region and striatum of PD mice. Kind of assay: HE staining of substantia nigra and striatum of PD mice. The assay is classed as in vivo, C57 mice. The following applies: Group L, levodopa: benserazide hydrochloride=4:1, 12 mg/kg ip, 4 weeks; compared with model group; FIG. 5-7. As to the method:
as §1, §2
Hematoxylin-eosin (HE) staining may be used to observe changes in the pathological condition of brain tissue. […]

Regarding `CCCC(CCC)C(=O)[O-].[Na+]` [VPA, sodium valproate, reference compound], the “Seizure grade score (highest, SE model rats)” value in assay [1] was found to be 5.00 ± 0.00.
Consider `N[C@@H](Cc1ccc(O)c(O)c1)C(=O)O` [levodopa, Levodopa, reference compound], for which the “TH-positive neurons (a percentage of TH-positive neurons to uninjured side, %)” value in assay [2] worked out at 18.8 ± 7.6 %. In addition, the “Number of Niehl's bodies” value in assay [3] was 57.8 ± 6.5. In assay [4], the “Rod-climbing time, 1 week of administration” value is recorded as 6.39 ± 1.18 ^ s; the “Rod-climbing time, 2 weeks of administration” value is listed as 5.79 ± 0.49 s; the “Rod-climbing time, 3 weeks of administration” value came to 5.34 ± 0.84 s; the “Rod-climbing time, 4 weeks of administration” value came out at 4.93 ± 0.59 s. Besides, the “Rod-climbing time, Before administration” value in assay [4] (baseline 2 weeks after 6-OHDA) stood at 9.63 ± 2.53 s. In addition, the “Hanging time, Before administration” value in assay [5] (baseline 2 weeks after 6-OHDA) was 43.7 ± 19.5 s. Further, in assay [5], the “Hanging time, 1 week of administration” value was determined as 54.4 ± 8.0 s; the “Hanging time, 2 weeks of administration” value came to 47.0 ± 16.2 s; the “Hanging time, 3 weeks of administration” value amounted to 48.2 ± 18.1 s; the “Hanging time, 4 weeks of administration” value is reported as 50.3 ± 12.9 s. In addition, the “degree of pathological damage to the substantia nigra region and striatum” value in assay [6] is reported as “reduced”.
